Measurements published in PubChem BioAssay AID248 (DTP/NCI, 2004).
Toxic doses and inconclusive results are not listed. Rule as the data show it: active = T/C of 150% or more; inactive = T/C below 125%.

System: L1210 leukemia ip in BDF1 mice, survival T/C
Experiment: NCI In Vivo Anticancer Drug Screen. Data for tumor model L1210 Leukemia (intraperitoneal) in B6D2F1 (BDF1) mice
Settings: endpoint: mean survival time, higher = longer survival
Procedure, shortened: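 Value reflects the ratio of survival in compound-treated mice to survival in vehicle-treated controls, with both groups carrying the same transplanted tumor.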

[1] = dose: 200.0 mg/kg/injection, schedule: Q01DX001 (ip), vehicle: carboxymethylcellulose (CMC)
[2] = dose: 400.0 mg/kg/injection, schedule: Q01DX001 (ip), vehicle: carboxymethylcellulose (CMC)
[3] = dose: 100.0 mg/kg/injection, schedule: Q04DX003 (ip), vehicle: saline
[4] = dose: 100.0 mg/kg/injection, schedule: Q01DX009 (ip), vehicle: Klucel (hydroxypropylcellulose) (HPC)
[5] = dose: 200.0 mg/kg/injection, schedule: Q01DX009 (ip), vehicle: Klucel (hydroxypropylcellulose) (HPC)
[6] = dose: 400.0 mg/kg/injection, schedule: Q01DX009 (ip), vehicle: Klucel (hydroxypropylcellulose) (HPC)
[7] = dose: 50.0 mg/kg/injection, schedule: Q01DX009 (ip), vehicle: saline with Tween-80
[8] = dose: 100.0 mg/kg/injection, schedule: Q01DX009 (ip), vehicle: saline with Tween-80
[9] = dose: 200.0 mg/kg/injection, schedule: Q01DX009 (ip), vehicle: saline with Tween-80
[10] = dose: 100.0 mg/kg/injection, schedule: Q04DX003 (ip), vehicle: Klucel (hydroxypropylcellulose) (HPC)
[11] = dose: 200.0 mg/kg/injection, schedule: Q04DX003 (ip), vehicle: Klucel (hydroxypropylcellulose) (HPC)
[12] = dose: 400.0 mg/kg/injection, schedule: Q04DX003 (ip), vehicle: Klucel (hydroxypropylcellulose) (HPC)
[13] = dose: 100.0 mg/kg/injection, schedule: Q01DX001 (ip), vehicle: saline
[14] = dose: 200.0 mg/kg/injection, schedule: Q01DX001 (ip), vehicle: saline
[15] = dose: 400.0 mg/kg/injection, schedule: Q01DX001 (ip), vehicle: saline
[16] = dose: 100.0 mg/kg/injection, schedule: Q01DX001 (ip), vehicle: Klucel (hydroxypropylcellulose) (HPC)
[17] = dose: 200.0 mg/kg/injection, schedule: Q01DX001 (ip), vehicle: Klucel (hydroxypropylcellulose) (HPC)
[18] = dose: 400.0 mg/kg/injection, schedule: Q01DX001 (ip), vehicle: Klucel (hydroxypropylcellulose) (HPC)

Measured: T/C

CC1(C)OC(CI)C(COS(C)(=O)=O)O1 (centres undefined)
inactive: dose: 100.0 mg/kg/injection, schedule: Q04DX003 (ip), vehicle: saline with Tween-80 114 % of control | dose: 115.0 mg/kg/injection, schedule: Q01DX001 (ip), vehicle: steriod suspending solution 97 % of control | dose: 173.0 mg/kg/injection, schedule: Q01DX001 (ip), vehicle: steriod suspending solution 90 % of control | dose: 200.0 mg/kg/injection, schedule: Q04DX003 (ip), vehicle: saline with Tween-80 105 % of control | dose: 400.0 mg/kg/injection, schedule: Q04DX003 (ip), vehicle: saline with Tween-80 111 % of control

c1ccc(NNCC[P+](c2ccccc2)(c2ccccc2)c2ccccc2)cc1
inactive: dose: 15.0 mg/kg/injection, schedule: Q01DX001 (ip), vehicle: carboxymethylcellulose (CMC) 91 % of control

O=C1C(=O)c2ccccc2C=C1C1CCCCC1
inactive: dose: 50.0 mg/kg/injection, schedule: Q01DX001 (ip), vehicle: carboxymethylcellulose (CMC) 97 % of control | dose: 100.0 mg/kg/injection, schedule: Q01DX001 (ip), vehicle: carboxymethylcellulose (CMC) 114 % of control | [1] 97 % of control | [2] 107 % of control

O=C(Nc1nc2ccccc2s1)c1ccc(C(=O)Nc2nc3ccccc3s2)cc1
inactive: dose: 100.0 mg/kg/injection, schedule: Q01DX001 (ip), vehicle: other 93 % of control | dose: 200.0 mg/kg/injection, schedule: Q01DX001 (ip), vehicle: other 90 % of control | dose: 400.0 mg/kg/injection, schedule: Q01DX001 (ip), vehicle: other 91 % of control

CC/C(=C(\CC)c1ccc(OCC(=O)N(CCCl)CCCl)cc1)c1ccc(OCC(=O)N(CCCl)CCCl)cc1
inactive: dose: 5.0 mg/kg/injection, schedule: Q04DX002 (ip), vehicle: saline 105 % of control | dose: 10.0 mg/kg/injection, schedule: Q04DX002 (ip), vehicle: saline 97 % of control | dose: 20.0 mg/kg/injection, schedule: Q04DX002 (ip), vehicle: saline 94 % of control

CC[N+](C)(CC)CCNC(=O)C(c1ccccc1)c1ccccc1
inactive: [3] 100 % of control

CCc1ccc(C)[n+](C)c1
inactive: dose: 75.0 mg/kg/injection, schedule: Q01DX001 (ip), vehicle: saline 96 % of control | dose: 150.0 mg/kg/injection, schedule: Q01DX001 (ip), vehicle: saline 95 % of control

COC(=O)c1ccc(OCCOc2ccc(C(C)(C)CC(C)(C)C)cc2)c(N)c1
inactive: [4] 97 % of control | [5] 105 % of control | [6] 91 % of control

Cc1cccc(C2=N/C(=C\c3cccc4ccccc34)C(=O)O2)c1
inactive: [7] 102 % of control | [8] 91 % of control | [9] 91 % of control

Cc1c2ccc(=O)cc-2oc2cc(O)ccc12
inactive: [10] 92 % of control | [11] 94 % of control | [12] 87 % of control

CC1(C)N=C(c2ccccc2)C2(c3ccccc3)N1C2(C)C (centres undefined)
inactive: dose: 6.0 mg/kg/injection, schedule: Q01DX001 (ip), vehicle: Klucel (hydroxypropylcellulose) (HPC) 92 % of control | dose: 12.0 mg/kg/injection, schedule: Q01DX001 (ip), vehicle: Klucel (hydroxypropylcellulose) (HPC) 101 % of control | dose: 25.0 mg/kg/injection, schedule: Q01DX001 (ip), vehicle: Klucel (hydroxypropylcellulose) (HPC) 101 % of control

O=c1c(O)c(-c2ccc(O)cc2O)oc2cc(O)cc(O)c12
inactive: [8] 103 % of control | [9] 98 % of control | dose: 400.0 mg/kg/injection, schedule: Q01DX009 (ip), vehicle: saline with Tween-80 90 % of control

O=C(CSC1=NCCN1)c1ccccc1
inactive: [8] 101 % of control

CC1(C(N)=O)CC2C=CC1C2 (centres undefined)
inactive: [1] 98 % of control | [2] 95 % of control

CCOC(CCc1c(-c2ccccc2)nc(NC(C)=O)[nH]c1=O)OCC
inactive: [4] 105 % of control | [5] 100 % of control | [6] 92 % of control

Cc1coc2c1CC1(C)C(CCC(O)C1C)C2 (centres undefined)
inactive: [13] 97 % of control | [14] 100 % of control | [15] 103 % of control

N=N/C(=C\c1c(O)[nH]c2ccccc12)c1ccccc1
inactive: dose: 100.0 mg/kg/injection, schedule: Q04DX002 (ip), vehicle: gum acacia 92 % of control | dose: 200.0 mg/kg/injection, schedule: Q04DX002 (ip), vehicle: gum acacia 89 % of control | dose: 400.0 mg/kg/injection, schedule: Q04DX002 (ip), vehicle: gum acacia 100 % of control

N#CSCCC(c1ccccc1)(c1ccccc1)c1ccccc1
inactive: [7] 90 % of control | [8] 90 % of control | [9] 90 % of control

CS(=O)(=O)/C=C(\I)c1ccccc1
inactive: [13] 97 % of control | [14] 97 % of control | [15] 93 % of control

O=[N+]([O-])c1[nH]cnc1S(=O)(=O)Cl
inactive: [13] 94 % of control | [14] 94 % of control | [15] 97 % of control

COc1ccc(Cl)cc1NC(=O)c1ccccc1C(=O)O
inactive: [4] 98 % of control | [10] 101 % of control | [5] 102 % of control | [11] 96 % of control | [6] 94 % of control | [12] 103 % of control

CC1(C)CC(Cc2ccccc2)C(=O)O1 (centres undefined)
inactive: [10] 93 % of control | [11] 90 % of control | [12] 100 % of control

CCNc1nnnn1CC
inactive: [3] 101 % of control | dose: 200.0 mg/kg/injection, schedule: Q04DX003 (ip), vehicle: saline 98 % of control | dose: 400.0 mg/kg/injection, schedule: Q04DX003 (ip), vehicle: saline 101 % of control

CCCCCCCCCCCC(=O)NC(=S)Nc1ccc([N+](=O)[O-])cc1C
inactive: [10] 88 % of control | [11] 86 % of control | [12] 90 % of control

CC1CCC(NC(=O)NCCCl)c2ccccc21 (centres undefined)
inactive: dose: 20.0 mg/kg/injection, schedule: Q04DX003 (ip), vehicle: Klucel (hydroxypropylcellulose) (HPC) 102 % of control | dose: 40.0 mg/kg/injection, schedule: Q04DX003 (ip), vehicle: Klucel (hydroxypropylcellulose) (HPC) 100 % of control | dose: 80.0 mg/kg/injection, schedule: Q04DX003 (ip), vehicle: Klucel (hydroxypropylcellulose) (HPC) 100 % of control

CSc1ncc(C=O)c(N)n1
inactive: [8] 100 % of control | [9] 96 % of control

CCCCOc1ccc(C(N)=S)c2ccccc12
inactive: [16] 105 % of control | [17] 112 % of control | [18] 94 % of control

O=C(CC(=O)c1cccc(NC(=O)CC(/C=C/C=C/CCCCCCCCCCCCCCCCC2CC(=O)OC2=O)C(=O)O)c1)Nc1ccccc1 (centres undefined)
inactive: dose: 75.0 mg/kg/injection, schedule: Q04DX003 (ip), vehicle: Klucel (hydroxypropylcellulose) (HPC) 94 % of control | [16] 90 % of control | dose: 150.0 mg/kg/injection, schedule: Q04DX003 (ip), vehicle: Klucel (hydroxypropylcellulose) (HPC) 95 % of control | [17] 90 % of control | dose: 300.0 mg/kg/injection, schedule: Q04DX003 (ip), vehicle: Klucel (hydroxypropylcellulose) (HPC) 103 % of control | [18] 87 % of control
